Source: the PolyMetriX glass transition set
± gives the standard deviation of the reports.

SMILES | glass transition temperature [°C]
*/C(=C(/*)c1ccc([Si](C)(C)C)cc1)c1ccccc1 (repeat unit) | 200.00
*/C(=C/c1cc(OC)c(/C=C(/c2ccc(*)cc2)c2ccc(F)cc2)cc1OC)c1ccc(F)cc1 (repeat unit) | 193.00
*/C(=C/c1cc(OC)c(/C=C(\c2ccc(F)cc2)c2ccc(-c3ccc(*)cc3)cc2)cc1OC)c1ccc(F)cc1 (repeat unit) | 201.00
*/C(=C/c1cc(OCCCCCCCC)c(/C=C(\c2ccccc2)c2ccc3c(c2)Sc2ccc(*)cc2S3)cc1OCCCCCCCC)c1ccccc1 (repeat unit) | 93.00
*/C(C#N)=C/c1cc(OCCCCCCCCCCCC)c(/C=C(\C#N)c2cc(OCCCCCCCCCCCC)c(*)cc2OC)cc1OC (repeat unit) | 181.00
*/C=C(\C#N)C(=O)Nc1cc(-c2ccc(O)c(NC(=O)/C(C#N)=C/c3ccc(/C=C/c4ccc(N(c5ccccc5)c5ccc(N(c6ccccc6)c6ccc(/C=C/c7ccc(*)s7)cc6)cc5)cc4)s3)c2)ccc1O (repeat unit) | 221.00
*/C=C(\C#N)C(=O)OCCCCCCCCCCOC(=O)/C(C#N)=C/c1ccc2c(c1)c1cc(*)ccc1n2CCCCCCC (repeat unit) | 59.00
*C(*)C(=O)OC (repeat unit) | 85.8
*C(*)F (repeat unit) | 102.00
*C(*)O (repeat unit) | 134.00
*C(C)C(*)C(=O)OCCC (repeat unit) | 116.00
*C(C)C(*)C(=O)OCCCC (repeat unit) | 90.00
*C(F)(F)C(*)(F)OC(F)(F)C(F)(F)F (repeat unit) | 29.00
*C(F)(F)C(*)(F)c1c(F)c(F)c(F)c(F)c1F (repeat unit) | 194.00
*C(F)(F)C1(F)C(F)(F)C(*)(F)C1(F)F (repeat unit) | 122.00
*C(F)C(*)(F)OC(F)(F)F (repeat unit) | -10.00
*C([2H])([2H])C(*)(C(=O)OC([2H])([2H])C([2H])([2H])[2H])C([2H])([2H])[2H] (repeat unit) | 94.00
*C([2H])([2H])C(*)(C(=O)OC([2H])([2H])[2H])C([2H])([2H])[2H] (repeat unit) | 115.00
*C([2H])([2H])C(*)([2H])Cl (repeat unit) | 85.00
*C/C=C/N(/C=C/CC1CC(=O)N(c2ccc(Cc3ccc(N4C(=O)CC(*)C4=O)cc3)cc2)C1=O)c1ccc(/N=N/c2ccc([N+](=O)[O-])cc2)cc1 (repeat unit) | 277.00
*C1C(*)C2CC1C(C(=O)OCCC13CC4CC(CC(C4)C1)C3)C2C(=O)OCCC12CC3CC(CC(C3)C1)C2 (repeat unit) | 300.00
*C1C(*)C2CC1C(C(=O)OCc1ccccc1)C2C(=O)OCc1ccccc1 (repeat unit) | 277.00

SMILES | glass transition temperature [°C]
*C1C(=O)N(C2CCCCC2)C(=O)C1* (repeat unit) | 232.00
*C1C(=O)N(CCCCCCCCOc2ccc(-c3ccc(C#N)cc3)cc2)C(=O)C1* (repeat unit) | 43.00
*C1C(=O)N(CCCCCOc2ccc(-c3ccc(C#N)cc3)cc2)C(=O)C1* (repeat unit) | 75.00
*C1C(=O)N(c2ccc(O[Si](C)(C)C)cc2)C(=O)C1* (repeat unit) | 172.00
*C1C2C/C(=C\C)C(C2)C1* (repeat unit) | 61.40
*C1C2CC(C(=O)OCCc3ccc(N(c4ccccc4)c4cccc(C)c4)cc3)C(C2)C1* (repeat unit) | 305.00
*C1C2CC(C(=O)OCCc3ccc(N(c4ccccc4)c4cccc5ccccc45)cc3)C(C2)C1* (repeat unit) | 333.00
*C1C2CC(C)C(C2)C1* (repeat unit) | 350.00
*C1C2CCC(C2)C1* (repeat unit) | 240.00
*C1C2CCC(C2)C1S(*)(=O)=O (repeat unit) | 33.00
*C1C=C(CCCCCC)C(*)S1 (repeat unit) | 58.1
*C1C=CC(*)CC1 (repeat unit) | 125.50
*C1CCC(*)C1 (repeat unit) | 65.10
*CC(OC(C)=O)C(CCC(C)(O)C=C)C(*)(C)C (repeat unit) | 85.00
*CC/C=C(/*)CCCCCCC (repeat unit) | -83.00
*CC/C=[C](/*)[Sn]([CH2]CCC)([CH2]CCC)[CH2]CCC (repeat unit) | -80.00
*CCC/C=C(/*)c1ccc(OC)cc1 (repeat unit) | 11.00
*CCCCCCCCCCOc1ccc(/C=C2\CC/C(=C\c3ccc(OCCCCCCCCCCOP(=O)(O*)OC)c(OC)c3)C2=O)cc1OC (repeat unit) | 48.00
*CCCCCCOc1ccc(/C=C2\CCC/C(=C\c3ccc(O*)c(OC)c3)C2=O)cc1OC (repeat unit) | 80.00
*CCCCOC(=O)/C=C/C(=O)O* (repeat unit) | 93.00
*c1ccc(-c2ccc(-n3c(=O)c4cc5c(=O)n(*)c(=O)c5cc4c3=O)cc2C(F)(F)F)c(C(F)(F)F)c1 (repeat unit) | 379.00 ± 21
*c1ccc(Oc2ccc(N3C(=O)C(c4ccccc4)=C(c4ccc(C5=C(c6ccccc6)C(=O)N(*)C5=O)cc4)C3=O)cc2)cc1 (repeat unit) | 293.00

Further lines, results first:

glass transition temperature [°C] | SMILES
208.00 | */C(=C/c1cc(OC)c(/C=C(/c2ccc(*)cc2)c2ccc(C(F)(F)F)cc2)cc1OC)c1ccc(C(F)(F)F)cc1 (repeat unit)
170.00 | */C(=C/c1cc(OC)c(/C=C(/c2ccc(*)cc2)c2ccc(OC)cc2)cc1OC)c1ccc(OC)cc1 (repeat unit)
87.00 | */C=C(\C#N)C(=O)OCCCCCCOC(=O)/C(C#N)=C/c1ccc2c(c1)c1cc(*)ccc1n2CCCCCCC (repeat unit)
53.00 | */C=C(\C#N)C(=O)OCCCCCCOC(=O)/C(C#N)=C/c1ccc2c(c1)c1cc(*)ccc1n2CCCCCCCCCCCCCC (repeat unit)
139.00 | *C(c1ccc(N(C)C)cc1)C(*)c1ccc([N+](=O)[O-])cc1 (repeat unit)
122.00 | *C1=C(c2ccc(-c3ccc4c(c3)C(CCCCCC)(CCCCCC)c3cc(-c5ccc(*)cc5)ccc3-4)cc2)C(=O)N(CCCCCCCC)C1=O (repeat unit)
328.00 | *C1C(*)C2CC1C(C(=O)OCC13CC4CC(CC(C4)C1)C3)C2C(=O)OCC12CC3CC(CC(C3)C1)C2 (repeat unit)
176.00 | *C1C(*)C2CC1C(COCc1ccccc1)C2COCc1ccccc1 (repeat unit)
167.00 | *C1C(=O)N(c2cc(Br)c(O[Si](C)(C)C)c(Br)c2)C(=O)C1* (repeat unit)
259.00 | *C1C(=O)N(c2ccccc2C(=O)OC)C(=O)C1* (repeat unit)
175.00 | *C1C(=O)OC(=O)C1C1C2CC(C(=O)OC(C)CC)C(C2)C1* (repeat unit)
209.00 | *C1C(=O)OC(=O)C1C1C2CC(COCCC)C(C2)C1* (repeat unit)
246.00 | *CC(c1ccccc1)C1C(=O)NC(=O)C1* (repeat unit)
-22.00 | *CCCCCCCCCCCCCCCCOC(=O)C/C=C/CC(=O)O* (repeat unit)
71.00 | *CCCCCCOc1c(OC)cc(/C=C2\CCC/C(=C\c3cc(OC)c(O*)c(OC)c3)C2=O)cc1OC (repeat unit)
104.60 | *NNC(=O)/C=C/C(=O)Nc1cccc(/C=C2\CC/C(=C\c3cccc(NC(=O)/C=C/C(*)=O)c3)C2=O)c1 (repeat unit)
265.00 | *Oc1ccc(NC(=O)/C=C/C(=O)NNC(=O)/C=C/C(=O)Nc2ccc(OC(=O)/C=C/C(=O)NNC(=O)/C=C/C(*)=O)cc2)cc1 (repeat unit)
260.00 | *c1ccc(Cc2ccc(N3C(=O)C4CCC(C5CCC6C(=O)N(*)C(=O)C6C5)CC4C3=O)cc2)cc1 (repeat unit)
405.00 ± 36 | *c1ccc(N2C(=O)c3ccc(-c4cccc5c4C(=O)N(*)C5=O)cc3C2=O)cc1 (repeat unit)
282.00 | *c1ccc(Oc2ccc(-c3ccc(Oc4ccc(N5C(=O)C(c6ccccc6)=C(c6ccc(C7=C(c8ccccc8)C(=O)N(*)C7=O)cc6)C5=O)cc4)cc3)cc2)cc1 (repeat unit)
269.00 ± 14 | *c1ccc(Oc2ccc(N3C(=O)c4ccc(Oc5ccc6c(c5)C(=O)N(*)C6=O)cc4C3=O)cc2)cc1 (repeat unit)
238.00 | *c1ccc(Oc2ccc(Oc3ccc(N4C(=O)C5CCC(C6CCC7C(=O)N(*)C(=O)C7C6)CC5C4=O)cc3)cc2)cc1 (repeat unit)
215.00 | *c1ccc(Oc2cccc(Oc3ccc(N4C(=O)C5CCC(C6CCC7C(=O)N(*)C(=O)C7C6)CC5C4=O)cc3)c2)cc1 (repeat unit)
278.00 | *c1ccc2c(c1)C(=O)N(C1CC(C)(C)CC(C)(CN3C(=O)c4ccc(C(*)(C(F)(F)F)C(F)(F)F)cc4C3=O)C1)C2=O (repeat unit)
355.50 ± 19 | *c1ccc2c(c1)C(=O)N(c1ccc(N3C(=O)c4ccc(C(*)(C(F)(F)F)C(F)(F)F)cc4C3=O)cc1)C2=O (repeat unit)
298.00 ± 3.2 | *c1ccc2c(c1)C(=O)N(c1cccc(N3C(=O)c4ccc(C(*)(C(F)(F)F)C(F)(F)F)cc4C3=O)c1)C2=O (repeat unit)
263.00 | *c1cccc(N2C(=O)C3CCC(C4CCC5C(=O)N(*)C(=O)C5C4)CC3C2=O)c1 (repeat unit)
246.00 ± 4.7 | *c1cccc(S(=O)(=O)c2cccc(N3C(=O)c4ccc(Oc5ccc6c(c5)C(=O)N(*)C6=O)cc4C3=O)c2)c1 (repeat unit)
